Measured values: ChEMBL document CHEMBL6078723, “Novel steroidal β-carboline derivatives as promising antibacterial candidates against methicillin-resistant Staphylococcus aureus” (Eur J Med Chem, 2025)

Tests used:
Format in all cases: functional
[1] = system: Staphylococcus aureus; experiment: Antibacterial activity against Staphylococcus aureus CGMCC1.8721
[2] = system: Staphylococcus aureus; experiment: Antibacterial activity against methicillin-resistant Staphylococcus aureus ATCC 43300
[3] = system: Staphylococcus aureus; experiment: Antibacterial activity against methicillin-resistant Staphylococcus aureus CGMCC1.12409
[4] = system: Staphylococcus aureus; experiment: Antibacterial activity against methicillin-resistant Staphylococcus aureus ATCC 33591
[5] = system: Staphylococcus aureus; experiment: Bactericidal activity against Staphylococcus aureus CGMCC1.8721 by CLSI based method
[6] = system: Staphylococcus aureus; experiment: Bactericidal activity against methicillin-resistant Staphylococcus aureus ATCC 43300 by CLSI based method
[7] = system: Staphylococcus aureus; experiment: Bactericidal activity against methicillin-resistant Staphylococcus aureus CGMCC1.12409 by CLSI based method
[8] = system: Staphylococcus aureus; experiment: Bactericidal activity against methicillin-resistant Staphylococcus aureus ATCC 33591 by CLSI based method

| SMILES | MIC [1] [µg/mL] | MIC [2] [µg/mL] | MIC [3] [µg/mL] | MIC [4] [µg/mL] | MBC [5] [µg/mL] | MBC [6] [µg/mL] | MBC [7] [µg/mL] | MBC [8] [µg/mL] |
| --- | --- | --- | --- | --- | --- | --- | --- | --- |
| COc1ccc2[nH]c3c(CC[C@H](C)[C@H]4CC[C@H]5[C@@H]6[C@H](O)C[C@@H]7C[C@H](O)CC[C@]7(C)[C@H]6C[C@H](O)[C@]45C)[n+](Cc4ccccc4F)ccc3c2c1.[Br-] | 1 | 1 | 2 | 4 | 2 | 2 | 4 | 4 |
| CCC[n+]1ccc2c([nH]c3ccc(OC)cc32)c1CC[C@H](C)[C@H]1CC[C@H]2[C@@H]3[C@H](O)C[C@@H]4C[C@H](O)CC[C@]4(C)[C@H]3C[C@H](O)[C@]12C.[Br-] | 16 | 16 | 16 | 16 | – | – | – | – |
| COc1ccc2[nH]c3c(CC[C@H](C)[C@H]4CC[C@H]5[C@@H]6[C@H](O)C[C@@H]7C[C@H](O)CC[C@]7(C)[C@H]6CC[C@]45C)[n+](Cc4ccc(OC(F)(F)F)cc4)ccc3c2c1.[Br-] | 16 | 16 | 16 | 16 | – | – | – | – |
| CCC[n+]1ccc2c([nH]c3ccc(OC)cc32)c1CC[C@H](C)[C@H]1CC[C@H]2[C@@H]3[C@H](O)C[C@@H]4C[C@H](O)CC[C@]4(C)[C@H]3CC[C@]12C.[Br-] | 1 | 2 | 2 | 2 | 2 | 2 | 4 | 4 |
| COc1ccc2[nH]c3c(CC[C@H](C)[C@H]4CC[C@H]5[C@@H]6[C@H](O)C[C@@H]7C[C@H](O)CC[C@]7(C)[C@H]6C[C@H](O)[C@]45C)[n+](Cc4ccc(OC(F)(F)F)cc4)ccc3c2c1.[Br-] | 1 | 1 | 1 | 2 | 1 | 2 | 2 | 4 |
| COc1ccc2[nH]c3c(CC[C@H](C)[C@H]4CC[C@H]5[C@@H]6[C@H](O)C[C@@H]7C[C@H](O)CC[C@]7(C)[C@H]6CC[C@]45C)[n+](Cc4ccccc4C)ccc3c2c1.[Br-] | 16 | 16 | 16 | 16 | – | – | – | – |
| COc1ccc2[nH]c3c(CC[C@H](C)[C@H]4CC[C@H]5[C@@H]6[C@H](O)C[C@@H]7C[C@H](O)CC[C@]7(C)[C@H]6CC[C@]45C)[n+](Cc4ccc(Br)cc4)ccc3c2c1.[Br-] | 16 | 16 | 16 | 32 | – | – | – | – |
| COc1ccc2[nH]c3c(CC[C@H](C)[C@H]4CC[C@H]5[C@@H]6[C@H](O)C[C@@H]7C[C@H](O)CC[C@]7(C)[C@H]6CC[C@]45C)[n+](Cc4ccc(F)cc4)ccc3c2c1.[Br-] | 4 | 4 | 4 | 8 | – | – | – | – |
| COc1ccc2[nH]c3c(CC[C@H](C)[C@H]4CC[C@H]5[C@@H]6CC[C@@H]7C[C@H](O)CC[C@]7(C)[C@H]6CC[C@]45C)[n+](Cc4ccc(OC(F)(F)F)cc4)ccc3c2c1.[Br-] | 16 | 16 | 16 | 32 | – | – | – | – |
| CCCCC[n+]1ccc2c([nH]c3ccc(OC)cc32)c1CC[C@H](C)[C@H]1CC[C@H]2[C@@H]3[C@H](O)C[C@@H]4C[C@H](O)CC[C@]4(C)[C@H]3CC[C@]12C.[Br-] | 8 | 16 | 16 | 16 | – | – | – | – |
| COc1ccc(OC)c(C[n+]2ccc3c([nH]c4ccc(OC)cc43)c2CC[C@H](C)[C@H]2CC[C@H]3[C@@H]4[C@H](O)C[C@@H]5C[C@H](O)CC[C@]5(C)[C@H]4CC[C@]23C)c1.[Br-] | 4 | 8 | 8 | 8 | – | – | – | – |
| COc1cccc(C[n+]2ccc3c([nH]c4ccc(OC)cc43)c2CC[C@H](C)[C@H]2CC[C@H]3[C@@H]4[C@H](O)C[C@@H]5C[C@H](O)CC[C@]5(C)[C@H]4CC[C@]23C)c1.[Br-] | 4 | 8 | 8 | 8 | – | – | – | – |
| CCCC[n+]1ccc2c([nH]c3ccc(OC)cc32)c1CC[C@H](C)[C@H]1CC[C@H]2[C@@H]3[C@H](O)C[C@@H]4C[C@H](O)CC[C@]4(C)[C@H]3C[C@H](O)[C@]12C.[Br-] | 16 | 16 | 16 | 16 | – | – | – | – |
| COc1ccc2[nH]c3c(CC[C@H](C)[C@H]4CC[C@H]5[C@@H]6[C@H](O)C[C@@H]7C[C@H](O)CC[C@]7(C)[C@H]6CC[C@]45C)[n+](Cc4cccc(Cl)c4)ccc3c2c1.[Br-] | 16 | 16 | 16 | 32 | – | – | – | – |
| CC[n+]1ccc2c([nH]c3ccc(OC)cc32)c1CC[C@H](C)[C@H]1CC[C@H]2[C@@H]3[C@H](O)C[C@@H]4C[C@H](O)CC[C@]4(C)[C@H]3CC[C@]12C.[Br-] | 1 | 2 | 2 | 2 | 2 | 2 | 4 | 4 |
| CC[n+]1ccc2c([nH]c3ccc(OC)cc32)c1CC[C@H](C)[C@H]1CC[C@H]2[C@@H]3CC[C@@H]4C[C@H](O)CC[C@]4(C)[C@H]3CC[C@]12C.[Br-] | 16 | 16 | 16 | 32 | – | – | – | – |
| COc1ccc2[nH]c3c(CC[C@H](C)[C@H]4CC[C@H]5[C@@H]6[C@H](O)C[C@@H]7C[C@H](O)CC[C@]7(C)[C@H]6C[C@H](O)[C@]45C)[n+](Cc4ccc(F)cc4)ccc3c2c1.[Br-] | 0.5 | 1 | 1 | 2 | 1 | 2 | 2 | 2 |
| COc1ccc2[nH]c3c(CC[C@H](C)[C@H]4CC[C@H]5[C@@H]6[C@H](O)C[C@@H]7C[C@H](O)CC[C@]7(C)[C@H]6C[C@H](O)[C@]45C)[n+](Cc4cccc(F)c4)ccc3c2c1.[Br-] | 1 | 1 | 2 | 2 | 2 | 2 | 4 | 2 |
| CC[n+]1ccc2c([nH]c3ccc(OC)cc32)c1CC[C@H](C)[C@H]1CC[C@H]2[C@@H]3[C@H](O)C[C@@H]4C[C@H](O)CC[C@]4(C)[C@H]3C[C@H](O)[C@]12C.[Br-] | 16 | 16 | 16 | 16 | – | – | – | – |
| COc1ccc2[nH]c3c(CC[C@H](C)[C@H]4CC[C@H]5[C@@H]6[C@H](O)C[C@@H]7C[C@H](O)CC[C@]7(C)[C@H]6C[C@H](O)[C@]45C)[n+](Cc4ccc(C)cc4)ccc3c2c1.[Br-] | 0.5 | 1 | 4 | 4 | 1 | 2 | 8 | 8 |
| COc1ccc2[nH]c3c(CC[C@H](C)[C@H]4CC[C@H]5[C@@H]6[C@H](O)C[C@@H]7C[C@H](O)CC[C@]7(C)[C@H]6CC[C@]45C)[n+](Cc4cccc(F)c4)ccc3c2c1.[Br-] | 4 | 8 | 8 | 8 | – | – | – | – |
| COc1ccc2[nH]c3c(CC[C@H](C)[C@H]4CC[C@H]5[C@@H]6[C@H](O)C[C@@H]7C[C@H](O)CC[C@]7(C)[C@H]6CC[C@]45C)[n+](Cc4ccccc4F)ccc3c2c1.[Br-] | 4 | 4 | 8 | 8 | – | – | – | – |
| COc1ccc2[nH]c3c(CC[C@H](C)[C@H]4CC[C@H]5[C@@H]6[C@H](O)C[C@@H]7C[C@H](O)CC[C@]7(C)[C@H]6CC[C@]45C)[n+](Cc4ccc(C)cc4)ccc3c2c1.[Br-] | 16 | 16 | 16 | 16 | – | – | – | – |
| COc1ccc2[nH]c3c(CC[C@H](C)[C@H]4CC[C@H]5[C@@H]6[C@H](O)C[C@@H]7C[C@H](O)CC[C@]7(C)[C@H]6C[C@H](O)[C@]45C)[n+](Cc4ccc(Br)cc4)ccc3c2c1.[Br-] | 1 | 2 | 2 | 2 | 2 | 2 | 4 | 4 |
| COc1ccc2[nH]c3c(CC[C@H](C)[C@H]4CC[C@H]5[C@@H]6CC[C@@H]7C[C@H](O)CC[C@]7(C)[C@H]6CC[C@]45C)[n+](Cc4ccc(C(F)(F)F)cc4)ccc3c2c1.[Br-] | 16 | 16 | 16 | 32 | – | – | – | – |
| COc1ccc2[nH]c3c(CC[C@H](C)[C@H]4CC[C@H]5[C@@H]6[C@H](O)C[C@@H]7C[C@H](O)CC[C@]7(C)[C@H]6C[C@H](O)[C@]45C)[n+](Cc4ccccc4C)ccc3c2c1.[Br-] | 0.5 | 1 | 4 | 4 | 1 | 4 | 8 | 8 |
| COc1cccc(C[n+]2ccc3c([nH]c4ccc(OC)cc43)c2CC[C@H](C)[C@H]2CC[C@H]3[C@@H]4[C@H](O)C[C@@H]5C[C@H](O)CC[C@]5(C)[C@H]4C[C@H](O)[C@]23C)c1.[Br-] | 1 | 1 | 4 | 4 | 2 | 4 | 8 | 8 |
